18 molecules from US20170348398A1, “COMPOSITIONS AND METHODS FOR DECREASING BLOOD GLUCAGON LEVELS” (Vanderbilt University, priority 2016, published 2017) can be followed below.

This test has as its system α-cells. As to the kind of experiment: in vitro α-cell proliferation assay (cultured mouse islets, cytospin, Ki67+ glucagon+ counting). The conditions noted are these: for α-cell proliferation when the amino acid is lowered to Gcgr+/+ serum levels: all other amino acids kept at high (Gcgr−/− serum) concentrations; for linear regression of amino acid concentration in media versus α-cell proliferation: media conditions of Table 1; for alpha cell proliferation at high levels of the amino acid: high levels of the single amino acid. It is filed as cell-based. The source says: To maximize the ability to quantify proliferating α-cells intact mouse islets were first cultured in media supplemented with Gcgr−/− or Gcgr+/+ mouse serum, dispersing the islets into cells, and then the cells centrifuged into a focused monolayer of cells using a cytospin centrifuge (FIG. 1A). […] To further maximize the throughput of this assay, a cytonuclear algorithm was developed to automate quantification of α-cell proliferation in cytospin islet images (FIG. 7C).
Pancreatic islets were isolated from male 8-14 week old C57B16/J mice (Jackson Laboratory, ME) and cultured in various media conditions for 3 days. […] For complete amino acid content in each media condition, see Table 1. For serum fractionation, serum was centrifuged for 1 hour at 2000×g at room temperature in a 10 kDa molecular weight cutoff spin column (Millipore, Billerica, Mass.). […] For lipid removal, serum was treated with Cleanascite reagent (Biotech Support Group, Monmouth Junction, N.J.) prior to islet culture at a 1:1 ratio according to the vendor's protocol.
Dispersed islet cells were recovered by centrifugation in RPMI media containing 5.6 mM glucose, 10% FBS, and 1% Penicillin/Streptomycin. The resulting cell pellet was resuspended in 100 ul of media and centrifuged onto a glass slide using a cytospin (Thermo Scientific, Waltham, Mass.) centrifuge. Air-dried slides were stored at −80° C. until use, thawed, and immediately fixed in 4% paraformaldehyde before immunocytochemistry. Slides were mounted with Aqua-Poly/Mount (Warrington, Pa.).
Cytospin slides were imaged using a Leica Microsystems Epifluorescent Microscope DM1 6000B. Tiled images were analyzed by a cytonuclear algorithm developed using the […] Software package (Indica Labs) (FIG. 7A). A glucagon surface was created by mapping glucagon immunoreactivity. DAPI and Ki67 positive cells were identified using a spot mapping algorithm. α-cells were identified by masking the glucagon surface on the DAPI staining and then creating a pseudospot where each α-cell was identified. Colocalization was determined by coregistering glucagon pseudospots with Ki67 spots. Each image was then manually checked for accuracy. For all islet culture experiments, a minimum of 500 α-cells counted per replicate (i.e. n=1) were required to be included in an experiment.

Regarding `NC(=O)NCCC[C@H](N)C(=O)O` [Citrulline], the α-cell proliferation result (cultured mouse islets, 3 days) is “failed to stimulate α-cell proliferation”.

Consider `N[C@@H](CCC(=O)O)C(=O)O` [L-glutamic acid], for which the “α-cell proliferation when the amino acid is lowered to Gcgr+/+ serum levels” value is “not required for increased α-cell proliferation”; the “linear regression of amino acid concentration in media versus α-cell proliferation” value was “significantly and positively correlated”.

Regarding `NC(=O)CC[C@H](N)C(=O)O` [L-glutamine], the “α-cell proliferation when the amino acid is lowered to Gcgr+/+ serum levels” value is “abolished the stimulation of α-cell proliferation”; the “linear regression of amino acid concentration in media versus α-cell proliferation” value was “significantly and positively correlated”. Under “cultured mouse islets, 3 days”, the “non α-cell proliferation” value was “no effect” and the α-cell proliferation entry is “in a dose-dependent fashion increased α-cell proliferation”.

With `CC(C)C[C@H](N)C(=O)O` [L-leucine], the “α-cell proliferation when the amino acid is lowered to Gcgr+/+ serum levels” value is “not required for increased α-cell proliferation”; the “linear regression of amino acid concentration in media versus α-cell proliferation” value was “significantly and positively correlated”.

On to `C[C@H](N)C(=O)O` [alanine], for which the “alpha cell proliferation at high levels of the amino acid” value (“alpha cell proliferation at high levels” below) was “not”. For the same molecule, the α-cell proliferation result (cultured mouse islets, 3 days) was “failed to stimulate α-cell proliferation”.

On to `N=C(N)NCCC[C@H](N)C(=O)O` [arginine], for which the “alpha cell proliferation at high levels” value is “stimulated alpha cell proliferation”.

For `NC(=O)C[C@H](N)C(=O)O` [asparagine], the “alpha cell proliferation at high levels” value is reported as “not”.

On to `NCC(=O)O` [glycine], for which the “alpha cell proliferation at high levels” value is “not”.

Turning to `N[C@@H](Cc1c[nH]cn1)C(=O)O` [histidine], the “alpha cell proliferation at high levels” value is “not”.

Take `CC[C@H](C)[C@H](N)C(=O)O` [isoleucine]: the “alpha cell proliferation at high levels” value is “not”.

Consider `NCCCC[C@H](N)C(=O)O` [lysine], for which the “alpha cell proliferation at high levels” value is reported as “not”.

For the molecule `CSCC[C@H](N)C(=O)O` [methionine], the “alpha cell proliferation at high levels” value was “not”.

For the molecule `NCCC[C@H](N)C(=O)O` [ornithine], the “alpha cell proliferation at high levels” value is on record as “not”. Moreover, for the setting “cultured mouse islets, 3 days”, the α-cell proliferation entry is listed as “failed to stimulate α-cell proliferation”.

`O=C(O)[C@@H]1CCCN1` [proline]: the “alpha cell proliferation at high levels” value is “not”.

Take `N[C@@H](CO)C(=O)O` [serine]: the “alpha cell proliferation at high levels” value was “not”.

With `N[C@@H](Cc1ccc(O)cc1)C(=O)O` [tyrosine], the “alpha cell proliferation at high levels” value is “not”.

Turning to `CC(C)[C@H](N)C(=O)O` [valine], the “alpha cell proliferation at high levels” value is “not”.

B1: activin A: Recombinant mouse Activin A protein (R&D Biosystems) (protein, UniProt Q04998 309-424, looked up)
Inhibin beta A chain: GLECDGKVNICCKKQFFVSFKDIGWNDWIIAPSGYHANYCEGECPSHIAGTSGSSLSFHSTVINHYRMRGHSPFANLKSCCVPTKLRPMSMLYYDDGQNIIKKDIQNMIVEECGCS
modifications: Inhibin beta A chain
In the case of B1, the α-cell proliferation entry (cultured mouse islets, 3 days) is listed as “did not stimulate α-cell proliferation”.
